Measurements as given in ChEMBL document CHEMBL5653615 (J Biol Chem, 2013).

Columns and labels:
[1] = target: Tyrosine-protein kinase Fgr (Homo sapiens) (UniProt P09769); experiment: Inhibition of human FGR at 500 nM by HotSpot assay relative to control
[2] = target: Proto-oncogene tyrosine-protein kinase ROS (Homo sapiens) (UniProt P08922); experiment: Inhibition of human ROS1 at 500 nM by HotSpot assay relative to control
[3] = target: G protein-coupled receptor kinase 5 (Homo sapiens) (UniProt P34947); experiment: Inhibition of human GRK5 at 500 nM by HotSpot assay relative to control
[4] = target: T1, Serine/threonine-protein kinase NLK (Homo sapiens) (UniProt Q9UBE8); experiment: Inhibition of human NLK at 500 nM by HotSpot assay relative to control
T1 sequence (whole entry): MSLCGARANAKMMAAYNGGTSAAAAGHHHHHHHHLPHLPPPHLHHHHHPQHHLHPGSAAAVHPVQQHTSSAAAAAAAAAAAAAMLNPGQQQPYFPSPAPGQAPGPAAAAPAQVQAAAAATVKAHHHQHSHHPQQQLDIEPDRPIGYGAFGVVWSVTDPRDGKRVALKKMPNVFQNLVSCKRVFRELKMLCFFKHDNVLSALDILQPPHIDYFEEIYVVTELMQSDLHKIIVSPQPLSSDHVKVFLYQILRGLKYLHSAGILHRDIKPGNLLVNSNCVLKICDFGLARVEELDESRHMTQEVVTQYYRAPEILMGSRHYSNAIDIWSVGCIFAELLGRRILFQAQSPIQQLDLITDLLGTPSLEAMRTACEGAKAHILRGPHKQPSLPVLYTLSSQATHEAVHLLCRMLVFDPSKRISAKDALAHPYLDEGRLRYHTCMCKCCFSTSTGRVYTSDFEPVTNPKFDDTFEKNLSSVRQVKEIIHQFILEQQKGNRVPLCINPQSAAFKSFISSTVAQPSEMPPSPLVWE

[5] = target: Serine/threonine-protein kinase PAK 6 (Homo sapiens) (UniProt Q9NQU5); experiment: Inhibition of human PAK6 at 500 nM by HotSpot assay relative to control
Serine/threonine-protein kinase PAK 6 (Homo sapiens), sequence (Q9NQU5 whole entry, looked up): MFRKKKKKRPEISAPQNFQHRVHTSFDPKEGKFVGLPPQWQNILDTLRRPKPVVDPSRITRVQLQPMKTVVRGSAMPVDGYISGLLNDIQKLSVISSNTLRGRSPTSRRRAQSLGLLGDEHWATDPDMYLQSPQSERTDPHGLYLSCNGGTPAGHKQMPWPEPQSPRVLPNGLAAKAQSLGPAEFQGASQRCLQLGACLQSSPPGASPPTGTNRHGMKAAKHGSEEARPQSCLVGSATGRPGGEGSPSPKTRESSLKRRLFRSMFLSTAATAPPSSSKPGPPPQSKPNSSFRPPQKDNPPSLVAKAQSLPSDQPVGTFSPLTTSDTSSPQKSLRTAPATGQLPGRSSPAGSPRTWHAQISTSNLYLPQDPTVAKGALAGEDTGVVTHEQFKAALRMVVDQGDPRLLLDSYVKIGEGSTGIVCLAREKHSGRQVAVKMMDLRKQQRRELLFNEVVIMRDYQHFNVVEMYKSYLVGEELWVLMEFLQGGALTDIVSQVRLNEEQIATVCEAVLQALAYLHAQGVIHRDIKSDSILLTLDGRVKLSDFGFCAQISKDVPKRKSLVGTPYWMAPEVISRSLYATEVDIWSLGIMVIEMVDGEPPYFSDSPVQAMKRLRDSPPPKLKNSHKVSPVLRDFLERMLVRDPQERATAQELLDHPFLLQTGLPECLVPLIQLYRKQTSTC

[6] = target: Cyclin-dependent kinase 5/CDK5 activator 1 (Homo sapiens) (UniProt Q00535+Q15078); experiment: Inhibition of human CDK5/p35 at 500 nM by HotSpot assay relative to control; format: protein-complex assay
[7] = target: Tyrosine-protein kinase FRK (Homo sapiens) (UniProt P42685); experiment: Inhibition of human FRK at 500 nM by HotSpot assay relative to control
[8] = target: BDNF/NT-3 growth factors receptor (Homo sapiens) (UniProt Q16620); experiment: Inhibition of human TRKB at 500 nM by HotSpot assay relative to control
[9] = target: T2, Serine/threonine-protein kinase Nek9 (Homo sapiens) (UniProt Q8TD19); experiment: Inhibition of human NEK9 at 500 nM by HotSpot assay relative to control
T2 sequence (whole entry): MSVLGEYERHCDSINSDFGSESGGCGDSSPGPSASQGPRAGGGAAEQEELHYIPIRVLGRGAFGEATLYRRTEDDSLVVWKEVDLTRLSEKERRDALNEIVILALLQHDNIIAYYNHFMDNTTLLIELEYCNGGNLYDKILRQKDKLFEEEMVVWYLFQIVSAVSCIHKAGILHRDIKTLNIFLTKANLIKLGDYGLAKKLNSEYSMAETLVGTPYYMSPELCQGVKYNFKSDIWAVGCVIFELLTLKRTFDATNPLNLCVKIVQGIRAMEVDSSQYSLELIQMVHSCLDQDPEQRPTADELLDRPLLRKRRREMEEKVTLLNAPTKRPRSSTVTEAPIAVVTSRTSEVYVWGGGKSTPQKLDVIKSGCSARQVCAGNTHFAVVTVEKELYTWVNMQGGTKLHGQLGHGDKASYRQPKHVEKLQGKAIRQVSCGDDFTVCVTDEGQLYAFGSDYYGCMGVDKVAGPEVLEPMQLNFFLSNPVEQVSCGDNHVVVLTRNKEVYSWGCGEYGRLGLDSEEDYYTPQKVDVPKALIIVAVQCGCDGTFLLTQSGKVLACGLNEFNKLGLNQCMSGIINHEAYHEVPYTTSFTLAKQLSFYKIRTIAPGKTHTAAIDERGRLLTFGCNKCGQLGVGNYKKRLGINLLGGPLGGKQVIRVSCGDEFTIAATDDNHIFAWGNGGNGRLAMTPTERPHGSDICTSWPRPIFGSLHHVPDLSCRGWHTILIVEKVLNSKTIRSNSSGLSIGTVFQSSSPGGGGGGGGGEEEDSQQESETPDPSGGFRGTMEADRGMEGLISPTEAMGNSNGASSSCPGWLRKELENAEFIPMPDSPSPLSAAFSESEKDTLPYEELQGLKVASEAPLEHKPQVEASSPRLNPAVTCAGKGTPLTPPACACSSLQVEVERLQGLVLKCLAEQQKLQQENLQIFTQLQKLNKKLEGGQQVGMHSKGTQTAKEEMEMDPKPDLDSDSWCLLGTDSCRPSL

[10] = target: T3, Testis-specific serine/threonine-protein kinase 1 (Homo sapiens) (UniProt Q9BXA7); experiment: Inhibition of human TSSK1 at 500 nM by HotSpot assay relative to control
T3 sequence (whole entry): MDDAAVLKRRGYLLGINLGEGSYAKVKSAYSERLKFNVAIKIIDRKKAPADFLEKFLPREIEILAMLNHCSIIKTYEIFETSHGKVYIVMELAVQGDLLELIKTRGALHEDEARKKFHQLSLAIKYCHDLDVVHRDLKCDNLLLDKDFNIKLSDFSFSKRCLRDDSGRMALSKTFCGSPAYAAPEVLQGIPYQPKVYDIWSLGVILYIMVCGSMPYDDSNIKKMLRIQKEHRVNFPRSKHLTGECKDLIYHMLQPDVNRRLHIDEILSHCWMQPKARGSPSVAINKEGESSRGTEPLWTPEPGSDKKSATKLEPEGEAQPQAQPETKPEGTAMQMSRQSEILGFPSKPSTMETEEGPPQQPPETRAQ

[11] = target: PAS domain-containing serine/threonine-protein kinase (Homo sapiens) (UniProt Q96RG2); experiment: Inhibition of human PASK at 500 nM by HotSpot assay relative to control
[12] = target: Tyrosine-protein kinase SYK (Homo sapiens) (UniProt P43405); experiment: Inhibition of human SYK at 500 nM by HotSpot assay relative to control
[13] = target: Interleukin-1 receptor-associated kinase 1 (Homo sapiens) (UniProt P51617); experiment: Inhibition of human IRAK1 at 500 nM by HotSpot assay relative to control
[14] = target: Mitogen-activated protein kinase 14 (Homo sapiens) (UniProt Q16539); experiment: Inhibition of human MAPK14 at 500 nM by HotSpot assay relative to control
Mitogen-activated protein kinase 14 (Homo sapiens), sequence (Q16539 whole entry): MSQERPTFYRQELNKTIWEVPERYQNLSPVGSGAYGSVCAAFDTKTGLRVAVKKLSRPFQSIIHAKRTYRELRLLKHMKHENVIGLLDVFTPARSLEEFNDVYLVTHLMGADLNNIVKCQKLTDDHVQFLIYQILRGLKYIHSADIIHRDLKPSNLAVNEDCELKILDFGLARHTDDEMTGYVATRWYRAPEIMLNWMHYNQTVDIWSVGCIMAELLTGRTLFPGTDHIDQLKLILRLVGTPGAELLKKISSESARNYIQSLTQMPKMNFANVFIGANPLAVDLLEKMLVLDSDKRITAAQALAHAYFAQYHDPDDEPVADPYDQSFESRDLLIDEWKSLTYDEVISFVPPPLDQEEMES

[15] = target: Leucine-rich repeat serine/threonine-protein kinase 2 (Homo sapiens) (UniProt Q5S007); experiment: Inhibition of human LRRK2 at 500 nM by HotSpot assay relative to control
Leucine-rich repeat serine/threonine-protein kinase 2 (Homo sapiens), sequence (Q5S007 whole entry): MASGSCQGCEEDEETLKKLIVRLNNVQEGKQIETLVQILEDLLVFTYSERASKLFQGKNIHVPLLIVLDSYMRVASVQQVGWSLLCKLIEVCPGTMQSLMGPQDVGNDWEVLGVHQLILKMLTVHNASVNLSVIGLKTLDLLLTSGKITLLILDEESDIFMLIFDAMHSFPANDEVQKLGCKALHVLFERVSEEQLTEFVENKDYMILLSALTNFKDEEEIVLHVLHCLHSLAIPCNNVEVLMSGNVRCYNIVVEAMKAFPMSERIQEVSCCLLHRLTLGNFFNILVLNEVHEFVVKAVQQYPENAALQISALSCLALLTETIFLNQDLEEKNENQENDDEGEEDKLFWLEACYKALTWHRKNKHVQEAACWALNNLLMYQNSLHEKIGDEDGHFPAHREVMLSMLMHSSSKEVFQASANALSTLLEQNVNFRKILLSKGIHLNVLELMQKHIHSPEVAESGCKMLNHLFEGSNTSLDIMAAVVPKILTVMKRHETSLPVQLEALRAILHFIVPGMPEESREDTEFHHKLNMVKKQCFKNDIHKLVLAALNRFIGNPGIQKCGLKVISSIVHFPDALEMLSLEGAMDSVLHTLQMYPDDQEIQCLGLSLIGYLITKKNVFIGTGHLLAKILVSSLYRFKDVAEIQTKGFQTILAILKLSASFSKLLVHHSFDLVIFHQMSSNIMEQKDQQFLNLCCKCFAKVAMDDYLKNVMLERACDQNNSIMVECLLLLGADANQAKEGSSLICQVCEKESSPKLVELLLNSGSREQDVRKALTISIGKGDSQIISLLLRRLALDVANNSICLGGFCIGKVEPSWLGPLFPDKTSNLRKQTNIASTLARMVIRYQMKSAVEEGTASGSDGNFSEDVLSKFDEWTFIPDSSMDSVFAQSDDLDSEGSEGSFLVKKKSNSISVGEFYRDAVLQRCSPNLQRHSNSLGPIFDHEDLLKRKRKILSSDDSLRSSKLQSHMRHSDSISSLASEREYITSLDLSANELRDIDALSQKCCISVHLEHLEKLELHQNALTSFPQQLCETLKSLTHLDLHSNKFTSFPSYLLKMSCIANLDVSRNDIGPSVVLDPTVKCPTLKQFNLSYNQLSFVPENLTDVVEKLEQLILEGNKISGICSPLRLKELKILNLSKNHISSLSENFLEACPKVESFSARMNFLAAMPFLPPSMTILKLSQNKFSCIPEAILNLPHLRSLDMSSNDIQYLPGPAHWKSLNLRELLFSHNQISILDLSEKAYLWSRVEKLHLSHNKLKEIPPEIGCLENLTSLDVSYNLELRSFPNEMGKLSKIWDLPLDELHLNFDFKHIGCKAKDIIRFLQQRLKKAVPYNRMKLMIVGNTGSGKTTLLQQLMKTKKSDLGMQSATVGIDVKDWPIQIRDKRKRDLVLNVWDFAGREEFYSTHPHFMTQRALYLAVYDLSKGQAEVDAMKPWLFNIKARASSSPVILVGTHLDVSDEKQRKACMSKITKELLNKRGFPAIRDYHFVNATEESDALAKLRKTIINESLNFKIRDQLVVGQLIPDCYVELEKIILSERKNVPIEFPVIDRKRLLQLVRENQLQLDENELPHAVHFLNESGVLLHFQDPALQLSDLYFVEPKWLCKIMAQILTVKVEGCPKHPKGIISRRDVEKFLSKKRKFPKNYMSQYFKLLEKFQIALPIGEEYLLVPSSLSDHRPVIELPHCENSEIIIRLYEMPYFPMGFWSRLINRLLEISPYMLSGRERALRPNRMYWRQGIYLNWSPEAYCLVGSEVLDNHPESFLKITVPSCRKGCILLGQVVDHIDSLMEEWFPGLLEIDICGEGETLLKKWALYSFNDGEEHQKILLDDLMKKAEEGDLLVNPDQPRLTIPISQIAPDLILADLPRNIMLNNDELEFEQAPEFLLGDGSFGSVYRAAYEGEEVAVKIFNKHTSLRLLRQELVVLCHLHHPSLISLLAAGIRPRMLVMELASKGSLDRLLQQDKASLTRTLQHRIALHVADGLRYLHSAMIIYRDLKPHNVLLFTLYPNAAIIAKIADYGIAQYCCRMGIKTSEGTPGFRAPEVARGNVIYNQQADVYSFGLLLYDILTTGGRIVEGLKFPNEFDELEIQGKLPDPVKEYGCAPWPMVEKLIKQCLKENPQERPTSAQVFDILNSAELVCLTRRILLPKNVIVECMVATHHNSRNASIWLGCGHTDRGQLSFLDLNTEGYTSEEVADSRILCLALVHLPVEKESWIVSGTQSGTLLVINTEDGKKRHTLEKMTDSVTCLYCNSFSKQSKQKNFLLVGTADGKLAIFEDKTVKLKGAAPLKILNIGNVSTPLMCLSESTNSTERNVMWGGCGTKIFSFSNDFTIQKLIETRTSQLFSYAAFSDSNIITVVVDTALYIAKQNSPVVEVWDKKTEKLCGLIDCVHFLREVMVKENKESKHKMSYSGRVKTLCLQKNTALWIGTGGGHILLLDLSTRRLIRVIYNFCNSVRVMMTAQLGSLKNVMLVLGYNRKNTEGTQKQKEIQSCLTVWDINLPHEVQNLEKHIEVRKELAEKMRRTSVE

[16] = target: CDK3/Cyclin E (Homo sapiens) (UniProt P24864+Q00526); experiment: Inhibition of human CDK3/cyclin E at 500 nM by HotSpot assay relative to control; format: protein-complex assay
CDK3/Cyclin E (Homo sapiens), sequence (P24864 whole entry, looked up): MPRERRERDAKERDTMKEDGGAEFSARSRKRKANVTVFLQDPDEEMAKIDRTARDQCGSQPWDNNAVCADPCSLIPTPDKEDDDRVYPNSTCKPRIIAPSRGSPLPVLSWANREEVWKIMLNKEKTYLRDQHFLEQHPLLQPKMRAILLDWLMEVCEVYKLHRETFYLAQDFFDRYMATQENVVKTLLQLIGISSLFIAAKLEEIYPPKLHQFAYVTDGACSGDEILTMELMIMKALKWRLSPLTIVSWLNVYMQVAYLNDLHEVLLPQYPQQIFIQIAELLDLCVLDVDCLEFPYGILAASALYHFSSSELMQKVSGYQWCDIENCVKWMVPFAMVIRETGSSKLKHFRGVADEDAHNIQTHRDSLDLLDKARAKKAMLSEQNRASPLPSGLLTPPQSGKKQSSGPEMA
CDK3/Cyclin E (Homo sapiens), sequence (Q00526 whole entry, looked up): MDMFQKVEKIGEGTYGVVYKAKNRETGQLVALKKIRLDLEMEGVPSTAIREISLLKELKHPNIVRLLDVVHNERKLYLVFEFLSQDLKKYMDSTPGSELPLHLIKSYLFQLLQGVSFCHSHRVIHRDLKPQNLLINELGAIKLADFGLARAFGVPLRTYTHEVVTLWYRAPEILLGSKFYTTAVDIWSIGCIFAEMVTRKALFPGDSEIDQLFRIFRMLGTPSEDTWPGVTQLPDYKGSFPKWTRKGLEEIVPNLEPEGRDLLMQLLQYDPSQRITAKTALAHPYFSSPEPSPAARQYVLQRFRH

Tyrosine-protein kinase Fgr (Homo sapiens), sequence (P09769 2-529 limits assumed): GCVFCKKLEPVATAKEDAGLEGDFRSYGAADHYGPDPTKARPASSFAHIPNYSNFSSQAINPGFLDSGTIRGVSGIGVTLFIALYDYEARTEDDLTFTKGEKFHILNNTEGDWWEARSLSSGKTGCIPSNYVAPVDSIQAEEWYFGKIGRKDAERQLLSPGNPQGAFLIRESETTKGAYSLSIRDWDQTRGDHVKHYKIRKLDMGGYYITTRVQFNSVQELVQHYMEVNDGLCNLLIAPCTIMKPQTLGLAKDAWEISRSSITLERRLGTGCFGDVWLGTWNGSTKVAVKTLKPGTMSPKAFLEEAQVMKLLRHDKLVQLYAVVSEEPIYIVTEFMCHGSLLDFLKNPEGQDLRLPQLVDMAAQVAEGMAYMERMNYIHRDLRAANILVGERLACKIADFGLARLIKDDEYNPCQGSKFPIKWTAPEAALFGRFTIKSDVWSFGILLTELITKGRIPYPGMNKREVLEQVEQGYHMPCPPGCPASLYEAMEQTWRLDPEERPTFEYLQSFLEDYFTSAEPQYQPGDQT

## Oc1n[nH]c2nnc(-c3c(-c4ccccc4)nn4ccccc34)cc12
[1]
  inhibition: -0.49%
[2]
  inhibition: 2.73%
[3]
  inhibition: -0.63%
[4]
  inhibition: -0.83%
[5]
  inhibition: 1.63%
[6]
  inhibition: -2.59%
[7]
  inhibition: -4.01%
[8]
  inhibition: 2.59%
[9]
  inhibition: 10.2%
[10]
  inhibition: -0.04%
[11]
  inhibition: -0.26%
[12]
  inhibition: 0.47%
[13]
  inhibition: -2.21%
[14]
  inhibition: -1.15%
[15]
  inhibition: -1.49%
[16]
  inhibition: 1.33%

## Nc1n[nH]c2nnc(-c3c(-c4ccccc4)nn4ccccc34)cc12
[1]
  inhibition: 7.1%
[2]
  inhibition: 19.8%
[3]
  inhibition: -6.2%
[4]
  inhibition: -2.21%
[5]
  inhibition: 3.58%
[6]
  inhibition: -4.88%
[7]
  inhibition: -1.32%
[8]
  inhibition: 10.3%
[9]
  inhibition: 6.65%
[10]
  inhibition: -1.56%
[11]
  inhibition: 0.21%
[12]
  inhibition: 2.6%
[13]
  inhibition: 0.31%
[14]
  inhibition: 5.42%
[15]
  inhibition: 8.17%
[16]
  inhibition: 3.23%
